Measurements as given in patent US20070270421A1, “Novel pyridine Derivative and Pyrimidine Derivative (1)” (priority 2004, published 2007).

Experiments:
[1] = molecular target: T1, HGFR (His6-HGFR cytoplasmic domain) (Homo sapiens, UniProt P08581); assay: Inhibitory activity against HGFR tyrosine kinase activity (HTRF); assay type: biochemical; details: biotin-poly(GT), ATP, 30° C. 10 min, read-out: IC50 (concentration necessary to inhibit HGFR kinase activity by 50%)
T1 construct: made in house; host or cells: Spodoptera frugiperda Sf9 insect cells (baculovirus, pFastBac-HT)
Summary of the method: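 Baculovirus/Sf9-expressed N-terminal His6-tagged HGFR cytoplasmic domain (from Lys974), Ni-NTA purified, phosphorylated biotin-poly(GT) in Hepes pH 7.4 with MgCl2/MnCl2. ATP added as 4 μM solution; 10 min at 30° C., stopped with EDTA. Phosphotyrosine product detected by HTRF.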

[2] = test system: Human gastric cancer cells (MKN-45); assay: Inhibitory activity against the proliferation of human gastric cancer cells (MKN-45); assay type: cell-based; details: 72 h, MKN-45, 1% FBS RPMI1640, 3 days, Cell Counting Kit-8, read-out: IC50 (concentration necessary to inhibit the cell proliferation by 50%)
Protocol: Human gastric cancer cells (MKN-45) were suspended in a 1% FBS-containing RPMI1640 medium (purchased from Sigma). The cell suspension (1×10^4 cells/ml) was added in a 96-well plate for cell culture (purchased from NUNC, Production No. 167008) at 0.1 ml/well, and then cultured in a 5% CO2 incubator (37° C.) overnight. After the culture, each well was supplied with 0.1 ml of a test substance diluted with a 1% FBS-containing RPMI1640 medium, followed by culturing in a 5% CO2 incubator (37° C.) for 3 days. After the culture, each well was supplied with 10 μl of Cell Counting Kit-8 (purchased from DOJINDO, Production No. 343-07623), followed by incubation in a 5% CO2 incubator (37° C.) for about 1.5 hrs. After the incubation, using the Plate Reader MTP-500 (Corona Electric), the absorbance of each well was determined at a measurement wavelength of 450 nm and a reference wavelength of 660 nm. The ratio (%) of absorbance of each well supplied with a test substance to absorbance of the well supplied with no test substance was calculated, and the ratio was used to calculate the concentration (IC50) of the test substance necessary to inhibit the cell proliferation by 50%.

T1 sequence (P08581 956-1390 limits assumed): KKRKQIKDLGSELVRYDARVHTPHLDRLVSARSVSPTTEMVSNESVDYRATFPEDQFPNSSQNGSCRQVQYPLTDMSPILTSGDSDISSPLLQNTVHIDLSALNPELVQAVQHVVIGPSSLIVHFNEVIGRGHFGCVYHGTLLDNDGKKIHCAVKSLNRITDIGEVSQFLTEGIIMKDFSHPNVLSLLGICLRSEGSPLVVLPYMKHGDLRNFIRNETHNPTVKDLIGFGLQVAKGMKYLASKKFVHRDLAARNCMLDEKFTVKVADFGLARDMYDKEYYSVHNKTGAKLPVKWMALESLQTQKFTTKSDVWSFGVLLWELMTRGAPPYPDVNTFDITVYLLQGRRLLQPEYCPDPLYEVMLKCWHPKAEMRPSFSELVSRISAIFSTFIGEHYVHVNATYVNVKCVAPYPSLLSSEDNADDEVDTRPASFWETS

Row | IC50 [1] | IC50 [2] | Compound
1 | 71 nM | 40 nM | O=C(Cc1ccc(F)cc1)NC(=S)Nc1ccc(Oc2cc(NC(=O)N3CCCC3)ncn2)c(F)c1 [Example 3, Pyrrolidine-1-carboxylic acid [6-(2-fluoro-4-{3-[2-(4-fluorophenyl)acetyl]thioureido}phenoxy)pyrimidin-4-yl]amide]
2 | 53 nM | 33 nM | O=C(Cc1ccc(F)cc1)NC(=S)Nc1ccc(Oc2ccnc(NC(=O)N3CCCC3)c2)cc1 [Example 9, Pyrrolidine-1-carboxylic acid [4-(4-{3-[2-(4-fluorophenyl)acetyl]thioureido}phenoxy)pyridin-2-yl]amide]
3 | 88 nM | 180 nM | O=C(Cc1ccccc1)NC(=S)Nc1ccc(Oc2ccnc(NC(=O)N3CCOCC3)c2)c(Cl)c1 [Example 11, 4-{2-Chloro-4-[3-(2-phenylacetyl)thioureido]phenoxy}-2-[(morpholin-4-yl)carbonylamino]pyridine]
4 | 110 nM | 23 nM | O=C(Cc1ccc(F)cc1)NC(=S)Nc1ccc(Oc2ccnc(NC(=O)N3CCCC3)c2)c(F)c1 [Example 13, 4-(2-Fluoro-4-{3-[2-(4-fluorophenyl)acetyl]thioureido}phenoxy)-2-[(pyrrolidin-1-yl)carbonylamino]pyridine]
5 | < 30 nM | 48 nM | O=C(Cc1ccccc1)NC(=S)Nc1ccc(Oc2ccnc(NC(=O)N3CCC(O)CC3)c2)c(F)c1 [Example 15, 4-{2-Fluoro-4-[3-(2-phenylacetyl)thioureido]phenoxy}-2-[(4-hydroxypiperidin-1-yl)carbonylamino]pyridine]
6 | 64 nM | 570 nM | CN(C)C(=O)Nc1cc(Oc2ccc(NC(=S)NC(=O)CC3CC4CCC3C4)cc2F)ccn1 (stereo not drawn) [Example 17, 2-[(Dimethylamino)carbonylamino]-4-{2-fluoro-4-[3-(2-norbornaneacetylthio)ureido]phenoxy}pyridine]
7 | 110 nM | 33 nM | CCN(CC)CCCN(C)C(=O)Nc1cc(Oc2ccc(NC(=S)NC(=O)Cc3ccc(F)cc3)cc2F)ccn1 [Example 22, 1-(3-Diethylaminopropyl)-3-[4-(2-fluoro-4-{3-[2-(4-fluorophenyl)acetyl]thioureido}phenoxy)pyridin-2-yl]-1-methylurea]
8 | 54 nM | 180 nM | Cc1cc(NC(=S)NC(=O)Cc2ccc(F)cc2)ccc1Oc1ccnc(NC(=O)N2CCOCC2)c1 [Example 24, Morpholine-4-carboxylic acid (4-{2-methyl-4-[3-(4-fluorophenyl)acetylthioureido]phenoxy}pyridin-2-yl)amide]
9 | 75 nM | 5.8 nM | CN1CCC(N(C)C(=O)Nc2cc(Oc3ccc(NC(=S)NC(=O)Cc4ccccc4)cc3F)ccn2)CC1 [Example 28, 3-{4-[2-Fluoro-4-(3-phenylacetylthioureido)phenoxy]pyridin-2-yl}-1-methyl-1-(1-methylpiperidin-4-yl)urea]
10 | 83 nM | 35 nM | O=C(Cc1ccccc1)NC(=O)Nc1ccc(Oc2ccnc(NC(=O)N3CCCC3)c2)c(F)c1 [Example 43, 4-{2-Fluoro-4-[3-(2-phenylacetyl)ureido]phenoxy}-2-[(pyrrolidin-1-yl)carbonylamino]pyridine]
11 | 45 nM | 64 nM | CN(C)C(=O)Nc1cc(Oc2ccc(NC(=O)NC(=O)Cc3ccccc3)cc2F)ccn1 [Example 44, 2-[(Dimethylamino)carbonylamino]-4-{2-fluoro-4-[3-(2-phenylacetyl)ureido]phenoxy}pyridine]
12 | 91 nM | 140 nM | O=C(Cc1ccccc1)NC(=O)Nc1ccc(Oc2ccnc(NC(=O)N3CCC(N4CCCC4)CC3)c2)c(F)c1 [Example 45, 4-{2-Fluoro-4-[3-(2-phenylacetyl)ureido]phenoxy}-2-{[4-(pyrrolidin-1-yl)piperidin-1-yl]carbonylamino}pyridine]
13 | 56 nM | 57 nM | O=C(Cc1ccccc1)NC(=O)Nc1ccc(Oc2ccnc(NC(=O)N3CCOCC3)c2)c(F)c1 [Example 48, Morpholine-4-carboxylic acid {4-[2-fluoro-4-(3-phenylacetylureido)phenoxy]pyridin-2-yl}amide]
14 | 190 nM | 160 nM | CN1CCN(C(=O)Nc2cc(Oc3ccc(NC(=O)NC(=O)Cc4ccccc4)cc3F)ccn2)CC1 [Example 50, 4-Methylpiperazine-1-carboxylic acid {4-[2-fluoro-4-(3-phenylacetylureido)phenoxy]pyridin-2-yl}amide]
15 | 73 nM | 63 nM | CN1CCC(N(C)C(=O)Nc2cc(Oc3ccc(NC(=O)NC(=O)Cc4ccccc4)cc3F)ccn2)CC1 [Example 52, 3-{4-[2-Fluoro-4-(3-phenylacetylureido)phenoxy]pyridin-2-yl]-1-methyl-1-(1-methylpiperidin-4-yl)urea]
16 | 56 nM | 140 nM | O=C(CC(=O)Nc1ccc(Oc2ccnc(NC(=O)N3CCCC3)c2)c(F)c1)Nc1ccc(F)cc1 [Example 56, N-(4-Fluorophenyl)-N′-(3-fluoro-4-{2-[(pyrrolidine-1-carbonyl)amino]pyridin-4-yloxy}phenyl)malonamide]
17 | 13 nM | 110 nM | O=C(CC(=O)Nc1ccc(Oc2ccnc(NC(=O)C3CC3)c2)cc1F)Nc1ccc(F)cc1 [Example 77, N-(4-Fluorophenyl)-N′-{4-[2-(cyclopropanecarbonylamino)pyridin-4-yloxy]-2-fluorophenyl}malonamide]
18 | 66 nM | 120 nM | O=C(CC(=O)Nc1ccc(Oc2ccnc(NC(=O)N3CCC(N4CCCC4)CC3)c2)cc1F)Nc1ccc(F)cc1 [Example 82, N-(4-Fluorophenyl)-N′-[2-fluoro-4-(2-{[4-(pyrrolidin-1-yl)piperidine-1-carbonyl]amino}pyridin-4-yloxy)phenyl]malonamide]
19 | 96 nM | 630 nM | Cc1cc(Oc2ccnc(NC(=O)N3CCC(N4CCCC4)CC3)c2)ccc1NC(=O)CC(=O)Nc1ccc(F)cc1 [Example 85, N-(4-Fluorophenyl)-N′-[2-methyl-4-(2-{[(4-pyrrolidin-1-yl)piperidine-1-carbonyl]amino}pyridin-4-yloxy)phenyl]malonamide]
20 | 38 nM | 86 nM | CN1CCC(N(C)C(=O)Nc2cc(Oc3ccc(NC(=O)CC(=O)Nc4ccc(F)cc4)cc3F)ccn2)CC1 [Example 89, N-(3-Fluoro-4-{2-[3-methyl-3-(1-methylpiperidin-4-yl)ureido]pyridin-4-yloxy}phenyl)-N′-(4-fluorophenyl)malonamide]
21 | 78 nM | 570 nM | CN1CCCN(C(=O)Nc2cc(Oc3ccc(NC(=O)CC(=O)Nc4ccc(F)cc4)c(F)c3)ccn2)CC1 [Example 92, N-(2-Fluoro-4-{2-[(4-methyl-[1,4]diazepane-1-carbonyl)amino]pyridin-4-yloxy}phenyl)-N′-(4-fluorophenyl)malonamide]
